We go through 6 molecules from ChEMBL document CHEMBL5465560, “Selectivity Literature for EUbOPEN Chemogenomic Library” (2024).

Assay [1] addresses Mitogen-activated protein kinase kinase kinase 11 (Homo sapiens) (UniProt Q16584). The assay can be described thus: Selectivity interaction (Kinase panel (KiNativ target engagement assay in Jurkat cells)) EUB0001635a MAP3K11. It is filed as cell-based. The note with it: Selectivity number of off-targets 0.0, Selectivity number of targets 233.0, Source Knowledge https://www.sciencedirect.com/science/article/pii/S2451945619300674?via%3Dihub, at 1 µM.

The target in assay [2] is Receptor-type tyrosine-protein kinase FLT3 (Homo sapiens) (UniProt P36888). The assay is described as follows: (§1) Selectivity interaction (KinomeScan (DiscoverX)) EUB0000666a FLT3. Conditions: at 10 µM.
Assay [3] relates to T1, Receptor-type tyrosine-protein kinase FLT3 (Homo sapiens), P36888 [D835Y].
T1 sequence (whole entry): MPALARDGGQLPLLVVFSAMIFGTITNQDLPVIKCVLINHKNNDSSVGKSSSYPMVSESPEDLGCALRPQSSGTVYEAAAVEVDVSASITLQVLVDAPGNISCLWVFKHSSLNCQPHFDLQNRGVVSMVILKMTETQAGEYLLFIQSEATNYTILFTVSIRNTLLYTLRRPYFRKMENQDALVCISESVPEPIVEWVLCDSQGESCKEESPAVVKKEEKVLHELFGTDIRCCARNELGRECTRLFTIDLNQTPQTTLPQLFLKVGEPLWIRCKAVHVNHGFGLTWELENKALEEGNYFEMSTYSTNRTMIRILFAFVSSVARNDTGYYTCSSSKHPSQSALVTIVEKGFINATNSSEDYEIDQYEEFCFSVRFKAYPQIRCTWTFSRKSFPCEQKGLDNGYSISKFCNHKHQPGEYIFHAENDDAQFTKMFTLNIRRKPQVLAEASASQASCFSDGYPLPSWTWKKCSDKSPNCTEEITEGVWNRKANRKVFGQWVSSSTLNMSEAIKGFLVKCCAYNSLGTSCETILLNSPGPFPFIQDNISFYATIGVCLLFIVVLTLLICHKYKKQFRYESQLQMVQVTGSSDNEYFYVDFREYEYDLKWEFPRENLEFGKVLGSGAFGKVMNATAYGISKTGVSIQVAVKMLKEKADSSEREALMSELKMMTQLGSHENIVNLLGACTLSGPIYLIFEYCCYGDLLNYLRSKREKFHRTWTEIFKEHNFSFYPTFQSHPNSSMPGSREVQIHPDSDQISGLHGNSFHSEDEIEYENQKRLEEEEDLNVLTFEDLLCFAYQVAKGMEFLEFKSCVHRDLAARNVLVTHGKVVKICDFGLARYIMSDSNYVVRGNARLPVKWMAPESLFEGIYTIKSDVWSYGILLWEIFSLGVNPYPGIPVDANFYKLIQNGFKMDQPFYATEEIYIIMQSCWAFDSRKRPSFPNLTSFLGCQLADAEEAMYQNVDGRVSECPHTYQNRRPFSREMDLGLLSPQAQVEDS
Described as §1. Conditions: at 10 µM.

Assay [4] addresses T2, Dual specificity mitogen-activated protein kinase kinase 6 (Homo sapiens) (UniProt P52564).
T2 sequence (whole entry): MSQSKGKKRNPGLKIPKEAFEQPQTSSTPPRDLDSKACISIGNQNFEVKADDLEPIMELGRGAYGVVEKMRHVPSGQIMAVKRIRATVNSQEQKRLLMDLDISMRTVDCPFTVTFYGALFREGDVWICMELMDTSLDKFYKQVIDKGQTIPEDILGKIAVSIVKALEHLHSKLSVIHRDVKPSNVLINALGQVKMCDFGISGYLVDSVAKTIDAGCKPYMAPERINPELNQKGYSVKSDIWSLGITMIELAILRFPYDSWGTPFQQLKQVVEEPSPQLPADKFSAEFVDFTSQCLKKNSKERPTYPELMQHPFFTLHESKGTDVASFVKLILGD
The assay can be described thus: Selectivity interaction (KinomeScan (DiscoverX)) EUB0001619a MAP2K6. The note with it: at 1 µM.

Assay [5] deals with LIM domain kinase 2 (Homo sapiens) (UniProt P53671). The assay is described as follows: Selectivity interaction (KinomeScan (DiscoverX)) EUB0001619a LIMK2. Conditions: at 1 µM.
LIM domain kinase 2 (Homo sapiens), sequence (P53671 whole entry, looked up, the tested form may be a part): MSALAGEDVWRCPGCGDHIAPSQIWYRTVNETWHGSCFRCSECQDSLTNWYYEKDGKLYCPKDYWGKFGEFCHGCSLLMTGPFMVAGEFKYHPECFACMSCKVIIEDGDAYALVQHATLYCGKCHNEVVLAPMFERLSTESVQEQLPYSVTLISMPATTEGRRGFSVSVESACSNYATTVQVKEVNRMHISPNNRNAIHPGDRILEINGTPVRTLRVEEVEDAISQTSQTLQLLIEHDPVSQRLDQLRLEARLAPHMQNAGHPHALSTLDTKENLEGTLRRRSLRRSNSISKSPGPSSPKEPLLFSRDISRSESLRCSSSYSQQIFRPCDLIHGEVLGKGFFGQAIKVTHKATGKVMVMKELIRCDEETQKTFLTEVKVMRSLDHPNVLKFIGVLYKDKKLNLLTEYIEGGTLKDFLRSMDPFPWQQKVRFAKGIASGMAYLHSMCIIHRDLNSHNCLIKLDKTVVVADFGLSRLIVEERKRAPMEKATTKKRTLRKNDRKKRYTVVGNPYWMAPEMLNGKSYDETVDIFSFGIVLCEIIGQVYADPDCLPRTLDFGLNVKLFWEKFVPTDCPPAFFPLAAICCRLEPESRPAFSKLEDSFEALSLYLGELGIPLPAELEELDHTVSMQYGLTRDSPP
The target of assay [6] is T3, Mitogen-activated protein kinase kinase kinase 2 (Homo sapiens) (UniProt Q9Y2U5).
T3 sequence (whole entry): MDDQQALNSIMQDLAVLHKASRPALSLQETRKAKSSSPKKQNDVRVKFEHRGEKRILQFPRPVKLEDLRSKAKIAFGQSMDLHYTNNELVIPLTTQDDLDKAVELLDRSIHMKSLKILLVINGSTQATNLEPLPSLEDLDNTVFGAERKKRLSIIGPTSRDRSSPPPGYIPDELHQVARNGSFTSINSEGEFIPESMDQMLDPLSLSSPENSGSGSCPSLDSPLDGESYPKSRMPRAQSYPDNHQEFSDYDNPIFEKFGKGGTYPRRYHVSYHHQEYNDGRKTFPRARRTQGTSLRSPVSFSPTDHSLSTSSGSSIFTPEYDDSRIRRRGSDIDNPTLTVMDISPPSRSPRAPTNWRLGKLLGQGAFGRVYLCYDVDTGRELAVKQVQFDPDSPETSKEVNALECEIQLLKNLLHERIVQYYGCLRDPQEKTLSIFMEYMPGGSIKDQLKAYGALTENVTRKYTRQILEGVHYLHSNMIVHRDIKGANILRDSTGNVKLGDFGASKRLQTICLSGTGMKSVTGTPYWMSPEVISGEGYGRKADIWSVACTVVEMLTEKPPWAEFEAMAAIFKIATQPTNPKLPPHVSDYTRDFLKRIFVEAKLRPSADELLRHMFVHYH
The assay can be described thus: Selectivity interaction (ActivX KiNativ screen (ex vivo kinase selectivity in human PBMCs)) EUB0001619a MAP3K2. It is filed as cell-based. Conditions: PBMC, at 1 µM.

Assay [7] has as its target Dual specificity mitogen-activated protein kinase kinase 1 (Homo sapiens, UniProt Q02750). The assay is described as follows: Selectivity interaction (ActivX KiNativ screen (kinase selectivity in THP-1 cell lysates)) EUB0000639a MAP2K1. It is filed as subcellular. Conditions: lysate, at 1 µM.
The target in assay [8] is T4, Serine/threonine-protein kinase Sgk1 (Homo sapiens) (UniProt O00141).
T4 sequence (whole entry): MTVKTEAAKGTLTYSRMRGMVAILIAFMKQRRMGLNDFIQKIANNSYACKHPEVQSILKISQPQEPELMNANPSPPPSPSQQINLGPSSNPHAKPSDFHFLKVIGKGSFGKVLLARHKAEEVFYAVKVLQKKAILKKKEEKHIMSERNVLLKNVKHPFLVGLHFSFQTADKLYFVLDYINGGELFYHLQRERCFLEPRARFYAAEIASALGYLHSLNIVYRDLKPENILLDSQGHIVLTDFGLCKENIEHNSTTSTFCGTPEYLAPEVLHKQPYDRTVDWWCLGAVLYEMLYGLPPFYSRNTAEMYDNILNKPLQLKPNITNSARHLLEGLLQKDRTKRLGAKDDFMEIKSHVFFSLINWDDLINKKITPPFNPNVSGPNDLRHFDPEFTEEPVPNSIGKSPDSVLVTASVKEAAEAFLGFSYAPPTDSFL
The assay can be described thus: Selectivity interaction (Upstate Kinase Profiler service (Millipore)) EUB0000056c SGK1. The note with it: at 1 µM.

The target of assay [9] is Homeodomain-interacting protein kinase 1 (Homo sapiens, UniProt Q86Z02). The assay can be described thus: Selectivity interaction (KinomeScan (DiscoverX)) EUB0000595a HIPK1. Conditions: at 10 µM.
Homeodomain-interacting protein kinase 1, sequence (Q86Z02 whole entry, looked up): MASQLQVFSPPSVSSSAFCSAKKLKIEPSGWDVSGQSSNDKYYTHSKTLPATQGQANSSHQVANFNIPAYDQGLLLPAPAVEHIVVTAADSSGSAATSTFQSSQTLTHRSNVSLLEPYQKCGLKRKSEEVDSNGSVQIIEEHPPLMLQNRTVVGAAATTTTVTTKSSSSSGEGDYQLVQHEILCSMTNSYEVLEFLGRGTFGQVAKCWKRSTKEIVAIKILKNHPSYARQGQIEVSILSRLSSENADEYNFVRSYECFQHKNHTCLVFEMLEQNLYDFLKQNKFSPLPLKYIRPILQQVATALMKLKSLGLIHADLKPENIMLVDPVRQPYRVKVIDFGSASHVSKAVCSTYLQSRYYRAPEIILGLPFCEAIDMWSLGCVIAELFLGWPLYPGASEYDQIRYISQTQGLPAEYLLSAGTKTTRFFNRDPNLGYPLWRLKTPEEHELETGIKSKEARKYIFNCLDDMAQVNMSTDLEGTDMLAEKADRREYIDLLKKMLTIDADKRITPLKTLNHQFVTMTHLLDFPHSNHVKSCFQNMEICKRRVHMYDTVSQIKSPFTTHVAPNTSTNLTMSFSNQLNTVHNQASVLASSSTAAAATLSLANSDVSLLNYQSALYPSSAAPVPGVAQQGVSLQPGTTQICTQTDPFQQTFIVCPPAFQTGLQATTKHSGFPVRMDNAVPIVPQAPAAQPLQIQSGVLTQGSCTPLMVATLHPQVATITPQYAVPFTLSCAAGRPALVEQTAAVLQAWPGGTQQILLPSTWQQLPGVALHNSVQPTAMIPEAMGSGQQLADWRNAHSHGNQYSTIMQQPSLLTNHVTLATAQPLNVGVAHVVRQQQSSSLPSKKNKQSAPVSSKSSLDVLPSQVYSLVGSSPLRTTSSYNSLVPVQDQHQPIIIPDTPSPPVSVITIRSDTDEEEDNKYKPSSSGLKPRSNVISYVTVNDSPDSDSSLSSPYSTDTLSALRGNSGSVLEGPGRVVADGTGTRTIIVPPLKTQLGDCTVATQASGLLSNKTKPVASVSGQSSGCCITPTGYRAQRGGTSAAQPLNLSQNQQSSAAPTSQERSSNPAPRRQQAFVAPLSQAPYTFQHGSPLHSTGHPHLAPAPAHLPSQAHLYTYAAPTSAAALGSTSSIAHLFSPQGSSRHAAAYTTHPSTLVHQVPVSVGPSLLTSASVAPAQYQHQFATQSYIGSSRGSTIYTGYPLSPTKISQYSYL

Dual specificity mitogen-activated protein kinase kinase 1, sequence (Q02750 whole entry): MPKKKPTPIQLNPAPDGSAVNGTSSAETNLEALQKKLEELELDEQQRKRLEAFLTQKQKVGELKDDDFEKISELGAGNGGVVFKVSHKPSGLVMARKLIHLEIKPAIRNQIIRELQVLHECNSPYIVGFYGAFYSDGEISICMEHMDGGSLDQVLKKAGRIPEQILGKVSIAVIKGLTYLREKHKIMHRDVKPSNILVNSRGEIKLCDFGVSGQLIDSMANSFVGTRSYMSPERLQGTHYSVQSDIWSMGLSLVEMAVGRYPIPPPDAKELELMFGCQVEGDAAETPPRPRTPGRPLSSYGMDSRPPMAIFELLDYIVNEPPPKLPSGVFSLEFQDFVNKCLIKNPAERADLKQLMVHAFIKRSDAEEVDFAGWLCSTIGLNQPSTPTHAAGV
Mitogen-activated protein kinase kinase kinase 11 (Homo sapiens), sequence (Q16584 whole entry, looked up): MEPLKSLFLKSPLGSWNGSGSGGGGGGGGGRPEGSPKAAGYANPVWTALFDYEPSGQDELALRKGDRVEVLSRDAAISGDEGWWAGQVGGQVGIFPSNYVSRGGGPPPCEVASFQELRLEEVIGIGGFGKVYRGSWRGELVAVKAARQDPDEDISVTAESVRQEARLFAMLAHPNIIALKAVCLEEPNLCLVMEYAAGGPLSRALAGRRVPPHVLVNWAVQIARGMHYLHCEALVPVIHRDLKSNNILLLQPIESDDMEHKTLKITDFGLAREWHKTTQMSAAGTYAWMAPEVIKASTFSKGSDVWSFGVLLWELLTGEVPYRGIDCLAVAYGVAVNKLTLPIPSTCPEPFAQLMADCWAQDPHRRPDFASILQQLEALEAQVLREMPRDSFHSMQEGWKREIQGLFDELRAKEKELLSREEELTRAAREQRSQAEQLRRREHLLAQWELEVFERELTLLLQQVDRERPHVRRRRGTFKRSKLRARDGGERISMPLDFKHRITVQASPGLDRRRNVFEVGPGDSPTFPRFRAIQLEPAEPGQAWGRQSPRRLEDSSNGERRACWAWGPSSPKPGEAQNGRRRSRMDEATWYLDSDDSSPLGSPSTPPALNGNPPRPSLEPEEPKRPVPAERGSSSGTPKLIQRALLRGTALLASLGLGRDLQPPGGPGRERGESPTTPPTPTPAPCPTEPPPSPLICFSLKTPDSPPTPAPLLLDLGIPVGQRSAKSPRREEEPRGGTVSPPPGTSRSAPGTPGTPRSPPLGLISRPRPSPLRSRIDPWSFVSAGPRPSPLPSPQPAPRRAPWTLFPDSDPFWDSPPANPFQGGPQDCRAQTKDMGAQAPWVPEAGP

For `C=CC(=O)Nc1ccc(C(=O)Nc2[nH]nc3c2CN(C(=O)N[C@H](CN(C)C)c2ccccc2)C3(C)C)cc1`, the % of engagement in assay [1] is -1.9%.

Consider `O=C(NOC[C@H](O)CO)c1ccc(F)c(F)c1Nc1ccc(I)cc1F`, for which the % of control in assay [2] was 82%; in assay [3] it was 100%.

For the molecule `N#Cc1cccc(-c2c[nH]c3ncnc(N4CCOCC4)c23)c1`, the values for the % of control in assay [4] and in assay [5] were 80% and 96%, respectively. The same molecule came in with a % of inhibition in assay [6] of 15%.

As for `CC[C@@H]1[C@H](F)C(=O)N[C@@H]1COc1nccc2cc(C(N)=O)c(OC)cc12` [ZIMLOVISERTIB], in assay [7], the % of inhibition amounted to 0.2%.

As for `Cc1ccc(-c2ccc3c(ccc4sc5c(c43)NC[C@@H](C)NC5=O)n2)cn1`, in assay [8], the % of inhibition came out at 4%.

Molecule `COCC(=O)NC/C=C/c1ccc2ncnc(Nc3ccc(Oc4ccc(C)nc4)c(C)c3)c2c1` [CP-724714] registered a % of control in [9] of 88%.
